Results reported in patent US20200060276A1, “THIAZOLE COMPOUND AND HERBICIDE” (OAT Agrio Co., Ltd., priority 2017, published 2020).

Columns and labels:
Assay type in all cases: in vivo
Cyperus microiria = assay: Test for Herbicidal Effect in Flooding Treatment (#1), CYMIC; conditions: flooding treatment at seeding, dose 2 kg/ha, visual observation on day 21
How it was run: (§1)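 Visual scores from 0 (<10% inhibition) to 5 (≥90% or complete withering) were taken 21 days after treatment of glasshouse-grown plants. Seeds were sown in soil flooded for 24 h beforehand, and compound was applied dropwise onto the surface at 2 kg/ha as an acetone solution diluted in water with Tween 80.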

Monochoria vaginalis = assay: Test for Herbicidal Effect in Flooding Treatment (#1), MONVA; conditions: flooding treatment at seeding, dose 2 kg/ha, visual observation on day 21
How it was run: as §1

[1] = test system: Echinochloa crus-galli (L.) P. Beauv. var. formosensis Ohwi; assay: Test for Herbicidal Effect in Flooding Treatment (#2), ECHDG at 2-2.5 leaf stage; conditions: flooding treatment at 2-2.5 leaf stage, dose 0.2 kg/ha, visual observation on day 21
How it was run: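 Scoring is a visual 0–5 scale of growth inhibition (0 below 10%, 5 at 90% or more or full withering), taken 21 days after treatment in a glasshouse. Dose was 0.2 kg/ha, applied as acetone/Tween 80 aqueous solution onto flooded soil once seedlings reached the 2–2.5 leaf stage.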

[2] = test system: Echinochloa crus-galli (L.) P. Beauv. var. formosensis Ohwi; assay: Test for Herbicidal Effect in Flooding Treatment (#1), ECHDG; conditions: flooding treatment at seeding, dose 2 kg/ha, visual observation on day 21
How it was run: as §1

Scirpus juncoides = assay: Test for Herbicidal Effect in Flooding Treatment (#1), SCIJU; conditions: flooding treatment at seeding, dose 2 kg/ha, visual observation on day 21
How it was run: as §1

SMILES | CYMIC #1 herbicidal effect (growth inhibition grade) (Cyperus microiria) | MONVA #1 herbicidal effect (growth inhibition grade) (Monochoria vaginalis) | ECHDG (2-2.5L) #2 herbicidal effect (growth inhibition grade) [1] | ECHDG #1 herbicidal effect (growth inhibition grade) [2] | SCIJU #1 herbicidal effect (growth inhibition grade) (Scirpus juncoides)
O=S(=O)(Cc1cc(Br)ccc1OC(F)(F)F)c1ncc(Cl)s1 [Compound 1C-47] | 5 (Growth inhibition effect is equal to or greater than 90%, or complete withering is achieved) | 5 (Growth inhibition effect is equal to or greater than 90%, or complete withering is achieved) | 4 (Growth inhibition effect is equal to or greater than 70%, and less than 90%) | 5 (Growth inhibition effect is equal to or greater than 90%, or complete withering is achieved) | 5 (Growth inhibition effect is equal to or greater than 90%, or complete withering is achieved)
COc1cccc(CS(=O)(=O)c2ncc(Cl)s2)c1 [Compound 1C-65] | 5 (Growth inhibition effect is equal to or greater than 90%, or complete withering is achieved) | 5 (Growth inhibition effect is equal to or greater than 90%, or complete withering is achieved) | 5 (Growth inhibition effect is equal to or greater than 90%, or complete withering is achieved) | 5 (Growth inhibition effect is equal to or greater than 90%, or complete withering is achieved) | 5 (Growth inhibition effect is equal to or greater than 90%, or complete withering is achieved)
COc1cccc(CS(=O)(=O)c2ncc(Cl)s2)c1Cl [Compound 1C-66] | 5 (Growth inhibition effect is equal to or greater than 90%, or complete withering is achieved) | 5 (Growth inhibition effect is equal to or greater than 90%, or complete withering is achieved) | 4 (Growth inhibition effect is equal to or greater than 70%, and less than 90%) | 5 (Growth inhibition effect is equal to or greater than 90%, or complete withering is achieved) | 5 (Growth inhibition effect is equal to or greater than 90%, or complete withering is achieved)
COc1ccc(F)c(CS(=O)(=O)c2ncc(Cl)s2)c1 [Compound 1C-69] | 5 (Growth inhibition effect is equal to or greater than 90%, or complete withering is achieved) | 5 (Growth inhibition effect is equal to or greater than 90%, or complete withering is achieved) | 4 (Growth inhibition effect is equal to or greater than 70%, and less than 90%) | 5 (Growth inhibition effect is equal to or greater than 90%, or complete withering is achieved) | 5 (Growth inhibition effect is equal to or greater than 90%, or complete withering is achieved)
COc1ccc(Cl)c(CS(=O)(=O)c2ncc(Cl)s2)c1 [Compound 1C-70] | 5 (Growth inhibition effect is equal to or greater than 90%, or complete withering is achieved) | 5 (Growth inhibition effect is equal to or greater than 90%, or complete withering is achieved) | 4 (Growth inhibition effect is equal to or greater than 70%, and less than 90%) | 5 (Growth inhibition effect is equal to or greater than 90%, or complete withering is achieved) | 5 (Growth inhibition effect is equal to or greater than 90%, or complete withering is achieved)
CCOc1cccc(CS(=O)(=O)c2ncc(Cl)s2)c1F [Compound 1C-75] | 5 (Growth inhibition effect is equal to or greater than 90%, or complete withering is achieved) | 5 (Growth inhibition effect is equal to or greater than 90%, or complete withering is achieved) | 4 (Growth inhibition effect is equal to or greater than 70%, and less than 90%) | 5 (Growth inhibition effect is equal to or greater than 90%, or complete withering is achieved) | 5 (Growth inhibition effect is equal to or greater than 90%, or complete withering is achieved)
CCOc1cc(CS(=O)(=O)c2ncc(Cl)s2)ccc1Cl [Compound 1C-77] | 5 (Growth inhibition effect is equal to or greater than 90%, or complete withering is achieved) | 5 (Growth inhibition effect is equal to or greater than 90%, or complete withering is achieved) | 3 (Growth inhibition effect equal to or greater than 50%, and less than 70%) | 5 (Growth inhibition effect is equal to or greater than 90%, or complete withering is achieved) | 5 (Growth inhibition effect is equal to or greater than 90%, or complete withering is achieved)
CCOc1cc(Cl)cc(CS(=O)(=O)c2ncc(Cl)s2)c1 [Compound 1C-78] | 5 (Growth inhibition effect is equal to or greater than 90%, or complete withering is achieved) | 5 (Growth inhibition effect is equal to or greater than 90%, or complete withering is achieved) | 5 (Growth inhibition effect is equal to or greater than 90%, or complete withering is achieved) | 5 (Growth inhibition effect is equal to or greater than 90%, or complete withering is achieved) | 5 (Growth inhibition effect is equal to or greater than 90%, or complete withering is achieved)
CCOc1cc(CS(=O)(=O)c2ncc(Cl)s2)cc(C(F)(F)F)c1 [Compound 1C-79] | 5 (Growth inhibition effect is equal to or greater than 90%, or complete withering is achieved) | 5 (Growth inhibition effect is equal to or greater than 90%, or complete withering is achieved) | 2 (Growth inhibition effect is equal to or greater than 30%, and less than 50%) | 5 (Growth inhibition effect is equal to or greater than 90%, or complete withering is achieved) | 5 (Growth inhibition effect is equal to or greater than 90%, or complete withering is achieved)
